Measured values: paper PMC11345766, “Computational Design of Pore-Forming Peptides with Potent Antimicrobial and Anticancer Activities” (Journal of Medicinal Chemistry, 2024)
Ends that are not written are not given here.

Experiments:
E. coli AIC221 = settings: E. coli / AIC221 / Prot. d; Prot. d
E. coli AIC222 (COL) = settings: E. coli / AIC222 / COL / Prot. d; Prot. d
E. coli ATCC 11775 = settings: E. coli / ATCC 11775 / Prot. d; Prot. d
[1] = tested on: E. coli E1098 (GEN, AMI, IMI, MER); settings: E. coli / E1098 / GEN, AMI, IMI, MER / Prot. c; Prot. c
[2] = AFM imaging of supported lipid bilayers; settings: P:L 1:500 (1 μM peptide)
Protocol: The SLBs were composed of POPC:POPG (1:1 mol/mol) lipids, the same composition used in the dye leakage assay. […] The pores were stable for an investigation period of 2 h and were visibly more numerous than those produced by LP1.[29]
Effects of peptides on the SLBs composed of POPC:POPG (1:1 mol/mol) lipids was investigated using AFM. LUVs were prepared in lipid dissolution buffer (50 mM Tris–HCl and 50 mM KCl) following a dye leakage assay protocol without calcein. Vesicles were sonicated for 30 min at 25 °C and extruded through a 50 nm pore size filter to form small unilamellar vesicles (SUVs). Following the vesicle deposition method,[103] SLBs were formed on mica using SUVs in SLB-forming buffer (50 mM Tris–HCl and 300 mM KCl) and 5 mM CaCl2, mounting a total volume of 150 μL on mica. After 1 h incubation at 25 °C, mica was washed 10 times with SLB-forming buffer and subjected to AFM analysis. The investigated P:L ratio was 1:500 (mol/mol). Bruker Dimension Icon AFM (USA) equipped with a PeakForce-HIRS-F-B silicon nitride probe (spring constant 0.12 N/m) was used to capture topographic images. PeakForce Quantitative NanoMechanic hybrid mode was used with 2 kHz frequency and 25 nm amplitude using set point <100 pN. The scan rate was 1 Hz using 512 samples/line. […]

[3] = tested on: K. pneumoniae 4371 (GEN, AMI, IMI, MER); settings: K. pneumoniae / 4371 / GEN, AMI, IMI, MER / Prot. c; Prot. c
[4] = tested on: A. baumannii Z13 (GEN, AMI, IMI, MER); settings: A. baumannii / Z13 / GEN, AMI, IMI, MER / Prot. c; Prot. c
[5] = tested on: normal B and T lymphocytes, granulocytes, and monocytes in whole blood; assay: Viability by flow cytometric staining in whole blood; assay type: cell-based, human; settings: up to the highest tested concentration of 50 μM; 16 h
Protocol: Finally, we tested the effect of LP1 and LP40 on healthy primary cells in whole blood from a healthy donor (Figure S11).
The whole blood was seeded in a 96-well plate at 200 μL/well and treated with peptides for 16 h. The samples were then stained with anti-CD3 (FITC, Sony), anti-CD14 (APC-Cy7, Sony), and anti-CD19 (PE, Beckman Coulter) antibodies and incubated for 20 min at room temperature in the dark. The cells were then incubated with red blood cell lysis buffer for 10 min at room temperature, centrifuged, resuspended in PBS containing SYTOX Blue Dead Cell Stain (Thermo Fisher Scientific) and measured using a FACSVerse flow cytometer (BD Biosciences).

| Substance | MIC (E. coli AIC221) [µM] | MIC (E. coli AIC222 (COL)) [µM] | MIC (E. coli ATCC 11775) [µM] | MIC [1] [µM] | Membrane defects or pores formed on SLBs [2] | MIC [3] [µM] | MIC [4] [µM] | Effect on healthy primary cells in whole blood [5] |
| --- | --- | --- | --- | --- | --- | --- | --- | --- |
| KKKKLKKILKKLFQFINQLDNQLQDIKKKK-NH2 [LP18] | 1.6 | 1.6 | 1.6 | 2 | significantly higher number of membrane defects or pores than LP1 | – | – | – |
| KKKKLKKILKKLFQFINQLDNQLQDIKQNK-NH2 [LP1] | – | – | – | – | – | 16 | 4 | no apparent deleterious effect |
